“Also recorded” adds a separate entry of the source.
Key:
RBC ATP pools [1] = experiment: Expansion of RBC ATP pools and blood plasma ATP levels after i.p. injection (Table 4); type: in vivo, mouse; conditions: for Plasma ATP levels / RBC ATP pools / Plasma [^3 ]ATP levels immediately after [^3 H]adenosine incorporation into whole blood: 5 hours after i.p. injection of 2 ml of 35 mM, CB6F1; for Plasma ATP levels / RBC ATP pools: bioluminometry, citrate-dextrose; for Plasma [^3 ]ATP levels immediately after [^3 H]adenosine incorporation into whole blood: radioactivity corrected by RBC specific radioactivity; for Duration of expansion of RBC ATP pools: after complete adsorption across the peritoneal membrane; for Time at which expansion of RBC ATP pools could be detected: after i.p. injection; for Increase in plasma (extracellular) ATP levels (in words): i.p. administration; for Expansion of RBC ATP pools (in words): i.p. injection, host animals
Description: (§1) The mice are anesthetized with ether during the procedure. Plasma or Hanks' (Balanced Salt Solution) BSS media from incubated isolated RBCs (Red Blood Cells) are prepared by centrifugation of whole blood or RBCs in a Beckman microfuge (30 seconds at 8000 xg) and samples of 100 μl are added to 1 ml of ice-cold 7% trichloroacetic acid. Red blood cells are prepared by centrifugation of whole blood (1500 xg for 5 minutes at 4° C.) and removal of plasma and the buffy coat is followed by a wash of the pelleted RBCs (from 250 μl of whole blood) in 5 ml of ice-cold Hanks' BSS. After centrifugations, the RBCs pellet is resuspended in Hanks' BSS to yield a total volume with the original hematocrit (percent of RBCs volume in the whole blood). Aliquots of 20 μl of RBCs suspensions or whole blood are added to 1 ml of ice-cold 7% trichloroacetic acid. Extraction of acid-soluble nucleotides and determinations of ATP levels by luminometry followed procedures discussed hereinabove. Levels of [^3 H]ATP in whole blood, RBCs, plasma, or RBCs incubation media (Hanks' BSS) are determined after incorporation of 250 μCi of [^3 H]adenosine of specific radioactivity of 30 Ci/mmol (1 Ci=3.7×10^10 becquerels) into whole blood or RBC suspensions (250 μl total) followed by immediate trichloroacetic acid extractions as described above. Two dimensional thin layer chromatography on poly(ethylene)imine cellulose with an unlabeled ATP carrier is performed according to Bochner and Ames, J. Biol. Chem., 257, pp. 9759-9769, 1982). For the determination of whole blood or isolated RBC [^3 H]ATP pools, 10 μl of a 1 ml initial trichloroacetic acid extract are chromatographed. Determinations of [^3 H]ATP levels in blood plasma or RBCs incubation media are performed on 300 μl of an initial 1 ml trichloroacetic acid extract which are lyophilized and redissolved in 15 μl of water. After chromatography, the spots corresponding to the ATP carrier are cut, eluted with 0.5 ml of 4 N ammonium hydroxide, and radioactivity determined in 10 ml of scintillation fluid.
Single intraperitoneal injections of 2 ml of 35 mM of AMP or ATP in saline at pH 6.2 into CB6F1 mice result in expansions of RBC ATP pools in these mice (see Table 4).
The expansions of RBC ATP pools after i.p. injections of AMP or ATP could be detected 30 minutes after injections and lasted for approximately 6-8 hours after the nucleotides were completely adsorbed across the peritoneal membrane and into the systemic circulation. The rates of adsorption of intraperitoneal AMP or ATP solutions varied in different strains of mice. […] These plasma ATP levels originate in RBCs since they can be metabolically labeled by [^3 H]adenosine. Plasma ATP pools which originate in the dense granules of blood platelets would not be radioactively labeled under the same conditions (e.g., Holmsen, 1985, Seminars in Hematol, 22, 219-240). The experiments described in Tables 4 and 5 include uptake of [^3 H]adenosine by whole blood (Table 4) or isolated washed RBCs (Table 5 below). In both cases, all the extracellular ATP, determined seconds after the uptake of [^3 H]adenosine, is metabolically labeled.

RBC ATP pools [2] = experiment: Stability of expanded RBC ATP pools in washed isolated RBCs in vitro after i.p. injection (Table 5); design: species or system mouse; conditions: average of two experiments; for Medium (Hanks' BSS) [^3 H]ATP levels immediately after [^3 H]adenosine incorporation into isolated, washed RBCs (at time 0) / ATP levels in the medium (Hanks' BSS): time 0; for ATP levels in the medium (Hanks' BSS): bioluminometry; for RBC ATP pools (37° C.), 0 min / RBC ATP pools (37° C.), 120 min: washed RBCs in Hanks' BSS
Description: as §1
Two hour incubations of washed isolated RBCs containing normal or expanded ATP pools in Hanks' BSS result in relatively small decreases in RBC ATP pools with the expanded pools being maintained well above normal levels (Table 5). The expansions of RBC ATP pools after i.p. administration of AMP or ATP in vivo is presumably the result of their dephosphorylation followed by the RBCs uptake of the adenosine which is generated in situ.

RBC ATP pools [3] = experiment: RBC ATP pools after in vitro incubation of whole mouse blood with 1 mM compound (Table 6); type: cell-based; conditions: for RBC ATP pools (after 30 min incubations in heparinized mouse blood): 1 mM compound, bioluminometry
Description: ^+ RBC ATP pools were determined in isolated washed RBCs after
incubations of whole blood with 1 mM of the specified compound by
bioluminometry. Data represent means ± S.D. of three separate

[4] = Host toxicity (deaths, body weight) in treated mice; type: in vivo, mouse; conditions: for Deaths: i.p. injections of adenine nucleotides
Description: Tumor cells are removed from subconfluent cultures by a mild trypsin-EDTA treatment, the cell pellet is washed once with MEM without serum and the cells are suspended at the desired cell numbers in PBS (phosphate-bufferedsaline, 8 g NaCl, 0.2 g KCl, 1.15 g Na2 HPO4.7H2 O, and 0.2 g KH2 PO4 per liter). Cell suspensions are shown to be at least 90% viable by trypan blue exclusion. Mice are injected subcutaneously in the right hind footpad with tumor cells suspended in 50 μl of PBS. The regular protocol (unless otherwise stated) consists of daily i.p. injections of 1 ml of 0.85% NaCl solution or 1 ml of 50 mM of AMP, ADP, or ATP in 0.85% NaCl (from stock solutions adjusted to pH 6.2) starting one day after tumor inoculation and given for ten consecutive days.
Injections are administered with 30 gauge needles and the mice are lightly anesthetized with ether. The mice are weighed before the start of treatment and once a week during and after treatment. After the tumors become palpable, tumor sizes are determined every three days. The animals are sacrificed, tumors are excised and weighed before they reach 10% of the animals' weight.

tumor cells = conditions: low doses; prior application Ser. No. 397,897; cited from earlier work
[5] = Rate of extracellular ATP degradation by mouse blood in vitro (Table 6); type: in vitro ADME; conditions: 1 mM, 37° C.
Description: (§2) *Blood (450 μl) was withdrawn into a syringe containing either 50 μ
(§3) of citratedextrose or 50 μl of heparin (100 U/ml). Whole blood was the
(§4) added to 1 mM of [^3 H]ATP in saline (25 μl) and at various time
(§5) points blood aliquots (90 μl) were removed and centrifuged. Plasma (20
(§6) μl) was withdrawn and added to 1 ml of icecold trichloroacetic acid.
(§7) Thin layer chromatography on poly(ethylene)imine cellulose was performed
(§8) according to published procedures. The rate of degradation of 1 mM of
(§9) [^3 H]ATP was linear for mouse or human blood during the initial 30
(§10) minute incubation at 37° C.

[6] = Rate of extracellular ATP degradation by human blood in vitro (Table 6); type: in vitro ADME; conditions: 1 mM, 37° C.
Description: as §2, §3, §4, §5, §6, §7, §8, §9, §10

human subjects = conditions: slow injections or infusions of the same dose (40 mg); cited from earlier work

Row | Structure (SMILES) | Plasma ATP levels (RBC ATP pools [1]) [µM] | RBC ATP pools (RBC ATP pools [1]) [mM] | Plasma [^3 ]ATP levels immediately after [^3 H]adenosine incorporation into whole blood (RBC ATP pools [1]) [µM] | Duration of expansion of RBC ATP pools (RBC ATP pools [1]) [h] | Time at which expansion of RBC ATP pools could be detected (RBC ATP pools [1]) [min] | Increase in plasma (extracellular) ATP levels (in words) (RBC ATP pools [1]) | Expansion of RBC ATP pools (in words) (RBC ATP pools [1]) | Medium (Hanks' BSS) [^3 H]ATP levels immediately after [^3 H]adenosine incorporation into isolated, washed RBCs (at time 0) (RBC ATP pools [2]) [µM] | ATP levels in the medium (Hanks' BSS) (RBC ATP pools [2]) [µM] | RBC ATP pools (37° C.), 0 min (RBC ATP pools [2]) [mM] | RBC ATP pools (37° C.), 120 min (RBC ATP pools [2]) [mM] | Increase in RBC ATP pools after in vitro treatment of whole mouse blood (in words) (RBC ATP pools [3]) | RBC ATP pools (after 30 min incubations in heparinized mouse blood) (RBC ATP pools [3]) [µM] | Deaths [4] | Effect on growth of tumor cells in vitro (in words) (tumor cells) | further results
1 | Nc1ncnc2c1ncn2[C@@H]1O[C@H](COP(=O)(O)O)[C@@H](O)[C@H]1O [AMP, adenosine 5'-monophosphate] | 3.10 ± 0.96 | 1.78 ± 0.32 | 2.86 ± 1.06 | 6 to 8 | 30 | markedly increased; also recorded: several fold increases in plasma (extracellular) ATP levels | yielded expansions of red blood cell (RBC) ATP pools | 1.81 | 2.42 | 1.01 | 0.86 | marginal increases in RBC ATP pools | 0.73 ± 0.10 | did not cause any deaths | would not inhibit cellular growth | Side-effects relative to ATP ([4]; host animals): less side-effects than ATP
2 | Nc1ncnc2c1ncn2[C@@H]1O[C@H](COP(=O)(O)OP(=O)(O)OP(=O)(O)O)[C@@H](O)[C@H]1O [ATP, adenosine 5'-triphosphate] | 4.94 ± 1.17 | 2.49 ± 0.42 | 5.75 ± 2.05 | 6 to 8 | 30 | markedly increased; also recorded: several fold increases in plasma (extracellular) ATP levels | yielded expansions of red blood cell (RBC) ATP pools | 4.93 | 4.08 | 2.52 | 1.76 | marginal increases in RBC ATP pools | 0.76 ± 0.05 | Occasionally, an animal treated with ATP or ADP would die a few hours after injection | marked inhibition of DNA synthesis and arrest of significant populations of cells in the S phase of their cycle | Rate of extracellular ATP degradation ([5]; citrate): 6.87 pmol/µL/min; Rate of extracellular ATP degradation ([5]; heparin): 10.21 pmol/µL/min; Rate of extracellular ATP degradation ([6]; citrate): 1.75 pmol/µL/min; Rate of extracellular ATP degradation ([6]; heparin): 4.07 pmol/µL/min; Response to slow injection or infusion in human subjects (human subjects): much lesser or no response at all
